Results as given in patent US8927063B2, “Compositions for the treatment of timber and other wood substrates” (TimTechChem International Limited, priority 2008, dated 2015).

Tests used:
[1] = Example 3: solubility and formulation stability in ester solvents
Description: Further formulation tests were carried out to ascertain if the fungicide IPBC (iodo propyl butyl carbamate, CAS No 55406-53-6) was soluble in ester compounds of formula (I).

[2] = Example 2: solvent evaporation rate from treated wood pieces (daily re-weighing); details: 17-22 °C, no external airflow
Description: The wood pieces were placed on plastic bearers allowing good access of air to all surfaces and situated in a dedicated room with no external airflow. Air temperatures in the room were mainly in the range 17-22° C.
The wood pieces were re-weighed daily to determine weight loss rates for the various solvents.

Structure (SMILES) | solubility ([1]; in butyl ethanoate) | solubility ([1]; in propyl ethanoate) | % Solvent Remaining in Wood ([2]; After 24 h) [%] | % Solvent Remaining in Wood ([2]; After 48 h) [%] | % Solvent Remaining in Wood ([2]; After 72 h) [%] | solubilisation in the esters of the invention [1]
N#Cc1c(Cl)c(Cl)c(Cl)c(C#N)c1Cl [chlorothalonil] | less than 1% | less than 1% |  |  |  | 
CCOC(C)=O [ethyl ethanoate] |  |  | 3.8 | 0 | 0 | 
CCCCOC(C)=O [n-butyl ethanoate] |  |  | 6.9 | 3.1 | 0.8 | 
CC(C)(C)C(O)(CCc1ccc(Cl)cc1)Cn1cncn1 (stereo not drawn) [tebuconazole] |  |  |  |  |  | good solubilisation
